From patent US20040038855A1 (priority 1999, published 2004)
Read-outs that look alike come from different tables or passages of the source.

Legend:
[1] = biological target: T1, human Histamine H1 receptor (Homo sapiens, UniProt P35367); assay: Binding affinity at the human histamine H1 receptor; details: Table 3c; read-out: hH1 Ki
T1 construct: expressed in transfected cells
Source text: (§1) Other receptors: Cell membranes expressing human dopamine D1, D2, D4 and rat D3 receptors were purchased through BioSignal, Inc. (Montreal, Canada). Binding assays using the histamine H1 receptor; dopamine receptors; and α1A, α1B, and α2 adrenergic receptors may be carried out according to the procedures described in U.S. Pat. No. 5,780,485, the disclosure of which is hereby incorporated by reference in its entirety into this application. Binding assays using the dopamine D5 receptor may be carried out according to the procedures described in U.S. Pat. No. 5,882,855, the disclosure of which is hereby incorporated by reference in its entirety into this application. Binding assays for the human α1D adrenergic receptor may be carried out according to the procedures described in U.S. Pat. No. 6,156,518, the disclosure of which is hereby incorporated by reference in its entirety into this application.

[2] = biological target: T2, human Alpha-1a Adrenergic receptor (Homo sapiens, UniProt P35348); assay: Binding affinity at the human alpha-1A adrenergic receptor; details: Table 3c; read-out: hAlpha-1a Ki
T2 construct: expressed in transfected cells
T2 sequence (P35348 1-466): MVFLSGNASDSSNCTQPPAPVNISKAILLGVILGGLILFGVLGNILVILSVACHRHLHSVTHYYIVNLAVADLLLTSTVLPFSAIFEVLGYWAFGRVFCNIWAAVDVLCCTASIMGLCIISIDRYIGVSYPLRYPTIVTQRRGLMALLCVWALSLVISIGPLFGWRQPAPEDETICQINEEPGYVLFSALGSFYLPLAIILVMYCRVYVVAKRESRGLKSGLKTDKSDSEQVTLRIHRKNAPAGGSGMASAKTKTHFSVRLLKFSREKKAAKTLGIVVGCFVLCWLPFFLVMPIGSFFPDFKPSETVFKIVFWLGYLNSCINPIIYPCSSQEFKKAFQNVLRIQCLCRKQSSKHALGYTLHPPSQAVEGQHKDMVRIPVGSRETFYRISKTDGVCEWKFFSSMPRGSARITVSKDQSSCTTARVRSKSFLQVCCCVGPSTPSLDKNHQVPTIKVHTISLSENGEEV
Source text: as §1

[3] = biological target: T3, rat MCH1 receptor (Rattus norvegicus, UniProt P97639); assay: Binding affinity (Ki) at the rat MCH1 receptor
T3 construct: expressed in transfected cells
T3 sequence (P97639 whole entry): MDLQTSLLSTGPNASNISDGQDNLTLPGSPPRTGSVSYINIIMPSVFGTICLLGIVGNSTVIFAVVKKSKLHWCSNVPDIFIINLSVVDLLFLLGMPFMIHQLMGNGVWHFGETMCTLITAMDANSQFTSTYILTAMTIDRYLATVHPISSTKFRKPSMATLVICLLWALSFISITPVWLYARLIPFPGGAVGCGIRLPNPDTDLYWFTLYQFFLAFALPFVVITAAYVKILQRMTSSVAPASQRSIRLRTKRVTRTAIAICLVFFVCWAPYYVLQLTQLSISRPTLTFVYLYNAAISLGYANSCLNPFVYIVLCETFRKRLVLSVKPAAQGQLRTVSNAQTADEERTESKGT
Experimental: For binding assays, pellets of transfected cells are suspended in ice-cold buffer (20 mM Tris.HCl, 5 mM EDTA, pH 7.4) and homogenized by sonication for 7 sec. The cell lysates are centrifuged at 200×g for 5 min at 4° C. The supernatants are then centrifuged at 40,000×g for 20 min at 4° C. The resulting pellets are washed once in the homogenization buffer and suspended in binding buffer (see methods for radioligand binding). Protein concentrations are determined by the method of Bradford (1976) using bovine serum albumin as the standard. Binding assays are usually performed immediately, however it is possible to prepare membranes in batch and store frozen in liquid nitrogen for future use.
Binding is performed at 25° C. for 1 hr. Incubations are terminated by rapid vacuum filtration over GF/C glass fiber filters, presoaked in 5% PEI using 50 mM Tris pH 7.4 containing 0.01% triton X-100 as wash buffer.
A methanolic solution of methyl (4S)-3-({[3-(4-[3-(acetylamino)phenyl]-3,6-dihydro-1(2H)pyridinyl)propyl]amino}carbonyl)-4-(3,4-difluorophenyl)-6-(methoxymethyl)-2-oxo-1,2,3,4-tetrahydro-5-pyrimidinecarboxylate was exposed to tritium gas at 1 atmosphere pressure in the presence of 5% palladium on carbon with stirring overnight to give the tritiated methyl (4S)-3-{[(3-{4-[3-(acetylamino)phenyl]-1-piperidinyl}propyl)amino]carbonyl}-4-(3,4-difluorophenyl)-6-(methoxymethyl)-2-oxo-1,2,3,4-tetrahydro-5-pyrimidinecarboxylate ((+)-isomer) After purification by reverse phase HPLC (Hypersil ODS, 4.6×100 mm, methanol:H2O:Et3N 10:90:1 to 100:0:1 in 15 min at 1.0 mL/min, with radiochemical and UV detection), this product was used as a radioligand in the MCH1 binding assays. The same procedure was carried out with H2 gas in place of ^3H2 to afford the non-radioactive version of Compound 10.

[4] = biological target: T4, human Dopamine D2 receptor (Homo sapiens, UniProt P14416); assay: Binding affinity at the human dopamine D2 receptor; details: Table 3c; read-out: hD2 Ki
T4 construct: purchased BioSignal, Inc. (Montreal, Canada)
T4 sequence (P14416 whole entry): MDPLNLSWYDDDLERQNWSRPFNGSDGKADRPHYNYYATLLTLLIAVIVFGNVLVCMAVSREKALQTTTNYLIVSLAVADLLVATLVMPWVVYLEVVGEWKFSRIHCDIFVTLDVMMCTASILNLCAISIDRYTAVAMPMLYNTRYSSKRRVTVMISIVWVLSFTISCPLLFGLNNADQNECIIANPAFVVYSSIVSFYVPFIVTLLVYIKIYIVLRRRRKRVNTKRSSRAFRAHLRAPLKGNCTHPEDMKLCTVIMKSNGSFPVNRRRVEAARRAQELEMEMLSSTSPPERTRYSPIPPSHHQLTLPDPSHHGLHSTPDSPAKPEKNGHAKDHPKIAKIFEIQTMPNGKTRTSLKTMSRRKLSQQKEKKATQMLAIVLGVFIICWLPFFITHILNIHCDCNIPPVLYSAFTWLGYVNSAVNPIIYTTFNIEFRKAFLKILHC
Source text: as §1

[5] = Examples 38-141, read-out: Ki (nM) rMCH1

T1 sequence (P35367 whole entry): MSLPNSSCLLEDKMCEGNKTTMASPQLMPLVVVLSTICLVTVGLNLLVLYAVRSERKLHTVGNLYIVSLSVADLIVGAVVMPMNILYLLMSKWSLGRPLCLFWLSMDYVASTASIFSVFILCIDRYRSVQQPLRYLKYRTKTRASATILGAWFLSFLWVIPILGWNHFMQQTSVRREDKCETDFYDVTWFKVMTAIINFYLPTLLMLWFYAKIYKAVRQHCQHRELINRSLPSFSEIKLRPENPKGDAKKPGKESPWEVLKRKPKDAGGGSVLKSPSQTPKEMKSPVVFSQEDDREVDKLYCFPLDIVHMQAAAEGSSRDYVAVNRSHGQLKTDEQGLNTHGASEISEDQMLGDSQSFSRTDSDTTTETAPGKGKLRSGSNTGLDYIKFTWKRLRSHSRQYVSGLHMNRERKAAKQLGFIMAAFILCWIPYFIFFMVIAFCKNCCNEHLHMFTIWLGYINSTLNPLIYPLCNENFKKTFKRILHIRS

| SMILES | Ki [1] [nM] | Ki [2] [nM] | Ki [3, 5] [nM] | Ki ([3]; Table 3c, read-out: rMCH1 Ki) [nM] | Ki [4] [nM] |
| --- | --- | --- | --- | --- | --- |
| COCC(=O)Nc1cccc(C2CCN(CCCNC(=O)N3C(=O)NC(COC)=C(C(=O)OC)[C@@H]3c3ccc(F)c(F)c3)CC2)c1 [Example 39, METHYL (4S)-4-(3,4-DIFLUOROPHENYL)-3-({[3-(4-{3-[(METHOXYACETYL)AMINO]PHENYL}-1-PIPERIDINYL)PROPYL]AMINO}CARBONYL)-6-(METHOXYMETHYL)-2-OXO-1,2,3,4-TETRAHYDRO-5-PYRIMIDINECARBOXYLATE] | 5660 | 25.5 | 3.33 | 3.33 | 25100 |
| COCC1=C(C(=O)OC)[C@H](c2ccc(F)c(F)c2)N(C(=O)NCCCN2CCC(c3cccc(NC(=O)CC(C)(C)C)c3)CC2)C(=O)N1 [Example 40, METHYL (4S)-4-(3,4-DIFLUOROPHENYL)-3-({[3-(4-{3-[(3,3-DIMETHYLBUTANOYL)AMINO]PHENYL}-1-PIPERIDINYL)PROPYL]AMINO}CARBONYL)-6-(METHOXYMETHYL)-2-OXO-1,2,3,4-TETRAHYDRO-5-PYRIMIDINECARBOXYLATE] | 7120 | 8.72 | 2.72 | 2.72 | 2650 |
| CCC(=O)Nc1cccc(C2CCN(CCCNC(=O)N3C(=O)NC(COC)=C(C(=O)OC)[C@@H]3c3ccc(F)c(F)c3)CC2)c1 [Example 41, METHYL (4S)-4-(3,4-DIFLUOROPHENYL)-6-(METHOXYMETHYL)-2-OXO-3-{[(3-{4-[3-(PROPIONYLAMINO)PHENYL]-1-PIPERIDINYL)PROPYL)AMINO]CARBONYL}-1,2,3,4-TETRAHYDRO-5-PYRIMIDINECARBOXYLATE] | 4540 | 14.3 | 0.04 | 0.04 | 9610 |
| COCC1=C(C(=O)OC)[C@H](c2ccc(F)c(F)c2)N(C(=O)NCCCN2CCC(c3cccc(NC(=O)CC(C)C)c3)CC2)C(=O)N1 [Example 42, METHYL (4S)-4-(3,4-DIFLUOROPHENYL)-6-(METHOXYMETHYL)-3-({[3-(4-{3-[(3-METHYLBUTANOYL)AMINO]PHENYL}-1-PIPERIDINYL)PROPYL]AMINO}CARBONYL)-2-OXO-1,2,3,4-TETRAHYDRO-5-PYRIMIDINECARBOXYLATE] | 7800 | 10.9 | 0.6 | 0.6 | 3270 |
| CCCC(=O)Nc1cccc(C2CCN(CCCNC(=O)N3C(=O)NC(COC)=C(C(=O)OC)[C@@H]3c3ccc(F)c(F)c3)CC2)c1 [Example 44, METHYL (4S)-3-{[(3-{4-[3-(BUTYRYLAMINO)PHENYL]-1-PIPERIDINYL}PROPYL)AMINO]CARBONYL}-4-(3,4-DIFLUOROPHENYL)-6-(METHOXYMETHYL)-2-OXO-1,2,3,4-TETRAHYDRO-5-PYRIMIDINECARBOXYLATE] | 2590 | 11.4 | 0.09 | 0.09 | 3610 |
| CCCC(=O)Nc1cccc(C2CCN(CCCNC(=O)C3=C(COC)NC(=O)N[C@@H]3c3ccc(F)c(F)c3)CC2)c1 [Example 45] | 4430 | 6030 | 14.7 | 14.7 | > 50000 |
| CCC(=O)Nc1cccc(C2CCN(CCCNC(=O)C3=C(COC)NC(=O)N[C@@H]3c3ccc(F)c(F)c3)CC2)c1 [Example 46] | 2870 | 2420 | 8.16 | 8.16 | > 50000 |
| COCC1=C(C(=O)NCCCN2CCC(c3cccc(NC(=O)CC(C)C)c3)CC2)[C@@H](c2ccc(F)c(F)c2)NC(=O)N1 [Example 47] | 3250 | 553 | 34.3 | 34.3 | 13500 |
| CCC(C)C(=O)Nc1cccc(C2CCN(CCCNC(=O)C3=C(COC)NC(=O)N[C@@H]3c3ccc(F)c(F)c3)CC2)c1 (stereo partly shown) [Example 48] | 7770 | 16600 | 22.1 | 22.1 | > 50000 |
| COCC1=C(C(=O)NCCCN2CCC(c3cccc(NC(=O)C(C)C)c3)CC2)[C@@H](c2ccc(F)c(F)c2)NC(=O)N1 [Example 50] | 7470 | 10400 | 13.7 | 13.7 | 19800 |
| CC(=O)Nc1cccc(C2CCN(CCCNC(=O)N3C(=O)NC(C)=C(C(C)=O)C3c3cc(F)c(F)c(F)c3)CC2)c1 (stereo not shown) [Example 51] | 1230 | 10.1 | 0.79 | 0.79 | 6640 |
| CCC1=C(C(=O)OCc2ccccc2)C(c2ccc(F)cc2F)N(C(=O)NCCCN2CCC(c3cccc(NC(C)=O)c3)CC2)C(=O)N1 (stereo not shown) [Example 52, BENZYL 3-{[(3-{4-[3-(ACETYLAMINO)PHENYL]-1-PIPERIDINYL}PROPYL)AMINO]CARBONYL}-4-(2,4-DIFLUOROPHENYL)-6-ETHYL-2-OXO-1,2,3,4-TETRAHYDRO-5-PYRIMIDINECARBOXYLATE] | 1430 | 200 | 0.81 | 0.81 | 166 |
| CC(=O)Nc1cccc(C2CCN(CCCNC(=O)N3C(=O)NC4=C(C(=O)OC4)C3c3ccc4c(c3)OCO4)CC2)c1 (stereo not shown) [Example 53] | 10400 | 2310 | 50.8 | 50.8 | 3450 |
| COC(=O)C1=C(C)N=C(SCc2ccc(OC)cc2)N(C(=O)NCCCN2CCC(c3cccc(NC(C)=O)c3)CC2)C1c1ccc([N+](=O)[O-])cc1 (stereo not shown) [Example 54, METHYL 1-{[(3-{4-[3-(ACETYLAMINO)PHENYL]-1-PIPERIDINYL}PROPYL)AMINO]CARBONYL}-2-[(4-METHOXYBENZYL)SULFANYL]-4-METHYL-6-(4-NITROPHENYL)-1,6-DIHYDRO-5-PYRIMIDINECARBOXYLATE] | 11400 | 11100 | 29.9 | 29.9 | 23000 |
| COC(=O)C1=C(C)NC(=O)N(C(=O)NCCCN2CCC(c3cccc(NC(C)=O)c3)CC2)[C@H]1c1ccc(F)c(F)c1 [Example 56, METHYL (4S)-3-{[(3-{4[3-(ACETYLAMINO)PHENYL]-1-PIPERIDINYL}PROPYL)AMINO]CARBONYL}-4-(3,4-DIFLUOROPHENYL)-6-METHYL-2-OXO-1,2,3,4-TETRAHYDRO-5-PYRIMIDINECARBOXYLATE] | 7230 | 305 | 0.26 | 0.26 | 10400 |
| CC(=O)Nc1cccc(C2CCN(CCCC(=O)c3ccc(C)c(C)c3)CC2)c1 [Example 57] | 823 | 49 | 90 | 90 | 6090 |
| COc1cccc(CC(=O)Nc2cccc(C3CCN(CCCC(=O)c4ccc(C)c(C)c4)CC3)c2)c1 [Example 61] | 1620 | 9.1 | 14.2 | 14.2 | 1140 |
| CC(=O)Nc1cccc(C2CCN(CCCC(=O)c3ccc(Cl)cc3)CC2)c1 [Example 65] | 1730 | 26.4 | 69 | 69 | 1430 |
| O=C(Cc1ccccc1)Nc1cccc(C2CCN(CCCC(=O)c3ccc(Cl)cc3)CC2)c1 [Example 68] | 571 | 57 | 84 | 84 | 771 |
| COc1ccc(C(=O)CCCN2CCC(c3cccc(NC(=O)C(C)C)c3)CC2)c(OC)c1 [Example 78] | 2280 | 284 | 52 | 52 | 5180 |
